Assay results from ChEMBL document CHEMBL5505992, “Novel membrane-targeting isoxanthohumol-amine conjugates for combating methicillin-resistant Staphylococcus aureus (MRSA) infections” (Eur J Med Chem, 2024).
Activity calls are given as the source filed them. The rule behind the calls is not given here.

How the values were obtained:
[1] = test system: Cell membrane; assay: Disruption of cell membrane in methicillin-resistant Staphylococcus aureus clinical isolate MRSA-16 assessed as increase in intracellular protein leakage incubated for 4 hrs by microspectrophotometer analysis; format: cell membranes
[2] = test system: Cell membrane; assay: Induction of cell membrane permeability in methicillin-resistant Staphylococcus aureus clinical isolate MRSA-16 assessed as dead cells (Q1 region) at 32 ug/ml incubated for 2 hrs by SYTO 9 and PI staining based flow cytometry analysis (reference value: 0.00%); format: cell membranes; conditions: dose 32.0 µg/ml
[3] = Toxicity in Kunming mouse assessed as histopathological abnormalities in spleen at 4 to 8 mg/kg, sc measured after 24 hrs by H and E staining based analysis; format: organism-based; conditions: in vivo, dose 4-8 mg/kg
[4] = test system: Staphylococcus aureus; assay: Antibacterial activity against methicillin-resistant Staphylococcus aureus clinical isolate MRSA-13 measured after 16 to 18 hrs by CLSI method; format: functional; conditions: time 16-18 hrs
[5] = test system: Staphylococcus aureus; assay: Bactericidal activity against methicillin-resistant Staphylococcus aureus incubated with 3 to 6 hrs compound treated plasma; format: functional; conditions: time 3-6 hrs
[6] = test system: Staphylococcus aureus; assay: Antibacterial activity against methicillin-resistant Staphylococcus aureus infected in Kunming mouse skin infection model assessed as decrease in bacterial load at 4 mg/kg,sc measured after 24 hrs; format: functional
[7] = test system: Cell membrane; assay: Induction of cell membrane permeability in methicillin-resistant Staphylococcus aureus clinical isolate MRSA-16 assessed as increase in damaged cells (Q2 region) at 16 ug/ml incubated for 2 hrs by SYTO 9 and PI staining based flow cytometry analysis (reference value: 0.91%); format: cell membranes; conditions: dose 16.0 µg/ml
[8] = Toxicity in Kunming mouse assessed as effect on liver at 10 mg/kg, sc measured after 24 hrs by H and E staining based analysis; format: organism-based; conditions: in vivo
[9] = Toxicity in Kunming mouse assessed as effect on kidney at 4 to 8 mg/kg, sc measured after 24 hrs by H and E staining based analysis; format: organism-based; conditions: in vivo, dose 4-8 mg/kg
[10] = test system: Staphylococcus aureus; assay: Induction of morphological changes in methicillin-resistant Staphylococcus aureus clinical isolate MRSA-16 assessed as ruptured cell surface at 16 ug/ml incubated for 4 hrs by SEM analysis; format: functional, organism-based; conditions: dose 16.0 µg/ml
[11] = test system: Staphylococcus aureus; assay: Antibacterial activity against Staphylococcus aureus ATCC 29213 measured after 20 passages for 16 to 18 hrs; format: functional; conditions: time 16-18 hrs
[12] = test system: Cell membrane; assay: Disruption of cell membrane in methicillin-resistant Staphylococcus aureus clinical isolate MRSA-16 assessed as increase in intracellular ROS production at upto 64 ug/ml measured after 40 mins by DCFH-DA dye based fluorescence assay; format: cell membranes; conditions: dose <= 64.0 µg/ml
[13] = Toxicity in Kunming mouse assessed as effect on heart at 4 to 8 mg/kg, sc measured after 24 hrs by H and E staining based analysis; format: organism-based; conditions: in vivo, dose 4-8 mg/kg
[14] = test system: Staphylococcus aureus; assay: Antibacterial activity against methicillin-resistant Staphylococcus aureus clinical isolate MRSA-14 measured after 16 to 18 hrs by CLSI method; format: functional; conditions: time 16-18 hrs
[15] = test system: Staphylococcus aureus; assay: Antibacterial activity against methicillin-resistant Staphylococcus aureus clinical isolate MRSA-11 measured after 16 to 18 hrs by CLSI method; format: functional; conditions: time 16-18 hrs
[16] = test system: Cell membrane; assay: Disruption of cell membrane integrity in methicillin-resistant Staphylococcus aureus clinical isolate MRSA-16 assessed as increase in red fluorescence at 2 ug/ml incubated for 4 hrs by DAPI and PI staining based confocal microscopy analysis; format: cell membranes; conditions: dose 2.0 µg/ml
[17] = Toxicity in Kunming mouse assessed as histopathological abnormalities in heart at 10 mg/kg, sc measured after 24 hrs by H and E staining based analysis; format: organism-based; conditions: in vivo
[18] = Toxicity in Kunming mouse assessed as histopathological abnormalities in lung at 4 to 8 mg/kg, sc measured after 24 hrs by H and E staining based analysis; format: organism-based; conditions: in vivo, dose 4-8 mg/kg
[19] = Toxicity in Kunming mouse assessed as histopathological abnormalities in spleen at 10 mg/kg, sc measured after 24 hrs by H and E staining based analysis; format: organism-based; conditions: in vivo
[20] = Cytotoxicity against human L02 cells assessed as cell viability at <=16 ug/ml by CCK-8 method relative to control; format: toxicity, cell-based; conditions: up to 16 µg/mL, read-out: Activity
[21] = test system: Staphylococcus aureus; assay: Antibacterial activity against methicillin-resistant Staphylococcus aureus infected in Kunming mouse skin infection model assessed as effect on skin abscesses in subcutaneous tissue at 8 mg/kg,sc measured after 24 hrs; format: functional, organism-based
[22] = Cytotoxicity against human L02 cells assessed as cell viability at 32 ug/ml by CCK-8 method relative to control; format: toxicity, cell-based; conditions: at 32 µg/mL, read-out: Activity
[23] = Toxicity in Kunming mouse assessed as survival rate at 80 mg/kg, sc measured after 24 hrs relative to control; format: organism-based; conditions: in vivo

CCCC[N+](C)(CCCC)CCCCCOc1ccc(C2CC(=O)c3c(OC)cc(OCCCCC[N+](C)(CCCC)CCCC)c(CC=C(C)C)c3O2)cc1.[I-].[I-] (stereo not drawn)
Activity [1]: Active
Activity [2]: 99.2%
Activity [3]: Non-Toxic
MIC [4]: 0.25 µg/mL
MBC [5]: 4 µg/mL
Activity [6]: 3.2 log10CFU/g
Activity [7]: 69.9%
Activity [8]: Non-Toxic
Activity [9]: Non-Toxic
Activity [10]: Active
MIC [11]: 1 µg/mL
Activity [12]: Active
Activity [13]: Non-Toxic
MIC [14]: 0.25 µg/mL
MIC [15]: 0.5 µg/mL
Activity [16]: Active
Activity [17]: Non-Toxic
Activity [18]: Non-Toxic
Activity [19]: Non-Toxic
viability [20]: 100%
Activity [21]: inactive
viability at 32 ug/ml [22]: 72%
survival at 24 h [23]: 40%
